Measured values reported in patent US20080075784A1, “Taste Making Formulation Comprising The Drug In A Dissolution-Retarded Form And/Or Cyclodextrin In A Dissolution-Enhanced Form” (Pfizer Inc., priority 2004, published 2008).

Experiment: β-cyclodextrin dissolution rate in deionized water by refractive index
Type: physicochemical
Conditions: for β-Cyclodextrin Dissolved (%): 350 mg in 50 mL deionized water; for amount of dissolved cyclodextrin at one minute relative to the 156 μm cyclodextrin: one minute following administration
Method: In this example, the amount of dissolved cyclodextrin provided by several different β-cyclodextrin samples with varying ranges of particle size was determined. Samples of β-cyclodextrin with average particle sizes ranging from 116 μm to 249 μm were obtained from Roquette America of Keokuk, Iowa. In addition, a β-cyclodextrin sample with an average particle size range of about 57 μm was prepared by first dissolving the 249-μm commercially available sample in water and then lyophilizing the solution to form a fine powder. Volume weighted mean particle diameter in microns for each β-cyclodextrin sample was determined using a Horiba particle sizer.
The dissolution rates of these samples were determined as follows. A 350 mg sample of β-cyclodextrin of a given particle size was placed into 50 mL of deionized water, and the refractive index was measured at the time points noted in Table 2. Refractive index measurements were compared to a calibration curve of standards with known concentration, and the concentration of dissolved β-cyclodextrin versus time was determined.

β-Cyclodextrin Dissolved (%) (time 0 min)	β-Cyclodextrin Dissolved (%) (time 1 min)	β-Cyclodextrin Dissolved (%) (time 2 min)	β-Cyclodextrin Dissolved (%) (time 3 min)	β-Cyclodextrin Dissolved (%) (time 4 min)	β-Cyclodextrin Dissolved (%) (time 5 min)	amount of dissolved cyclodextrin provided by crystalline cyclodextrin (one minute after administration)	cyclodextrin dissolved after one minute (one minute, value taken from Table 3) [wt %]	amount of dissolved cyclodextrin at one minute relative to the 156 μm cyclodextrin	SMILES
0	45	52	64	64	71	–	–	–	OC[C@H]1O[C@@H]2O[C@H]3[C@H](O)[C@@H](O)[C@@H](O[C@H]4[C@H](O)[C@@H](O)[C@@H](O[C@H]5[C@H](O)[C@@H](O)[C@@H](O[C@H]6[C@H](O)[C@@H](O)[C@@H](O[C@H]7[C@H](O)[C@@H](O)[C@@H](O[C@H]8[C@H](O)[C@@H](O)[C@@H](O[C@H]1[C@H](O)[C@H]2O)O[C@@H]8CO)O[C@@H]7CO)O[C@@H]6CO)O[C@@H]5CO)O[C@@H]4CO)O[C@@H]3CO [183 μm, β-cyclodextrin]
0	41	81	96	92	95	about 41%	–	–	OC[C@H]1O[C@@H]2O[C@H]3[C@H](O)[C@@H](O)[C@@H](O[C@H]4[C@H](O)[C@@H](O)[C@@H](O[C@H]5[C@H](O)[C@@H](O)[C@@H](O[C@H]6[C@H](O)[C@@H](O)[C@@H](O[C@H]7[C@H](O)[C@@H](O)[C@@H](O[C@H]8[C@H](O)[C@@H](O)[C@@H](O[C@H]1[C@H](O)[C@H]2O)O[C@@H]8CO)O[C@@H]7CO)O[C@@H]6CO)O[C@@H]5CO)O[C@@H]4CO)O[C@@H]3CO [156 μm, β-cyclodextrin]
0	20	26	42	54	67	–	20	–	OC[C@H]1O[C@@H]2O[C@H]3[C@H](O)[C@@H](O)[C@@H](O[C@H]4[C@H](O)[C@@H](O)[C@@H](O[C@H]5[C@H](O)[C@@H](O)[C@@H](O[C@H]6[C@H](O)[C@@H](O)[C@@H](O[C@H]7[C@H](O)[C@@H](O)[C@@H](O[C@H]8[C@H](O)[C@@H](O)[C@@H](O[C@H]1[C@H](O)[C@H]2O)O[C@@H]8CO)O[C@@H]7CO)O[C@@H]6CO)O[C@@H]5CO)O[C@@H]4CO)O[C@@H]3CO [249 μm, β-cyclodextrin]
0	58	76	84	88	–	–	–	about 1.4 fold	OC[C@H]1O[C@@H]2O[C@H]3[C@H](O)[C@@H](O)[C@@H](O[C@H]4[C@H](O)[C@@H](O)[C@@H](O[C@H]5[C@H](O)[C@@H](O)[C@@H](O[C@H]6[C@H](O)[C@@H](O)[C@@H](O[C@H]7[C@H](O)[C@@H](O)[C@@H](O[C@H]8[C@H](O)[C@@H](O)[C@@H](O[C@H]1[C@H](O)[C@H]2O)O[C@@H]8CO)O[C@@H]7CO)O[C@@H]6CO)O[C@@H]5CO)O[C@@H]4CO)O[C@@H]3CO [116 μm, β-cyclodextrin]
0	102	102	97	99	100	–	–	about 2.4 fold	OC[C@H]1O[C@@H]2O[C@H]3[C@H](O)[C@@H](O)[C@@H](O[C@H]4[C@H](O)[C@@H](O)[C@@H](O[C@H]5[C@H](O)[C@@H](O)[C@@H](O[C@H]6[C@H](O)[C@@H](O)[C@@H](O[C@H]7[C@H](O)[C@@H](O)[C@@H](O[C@H]8[C@H](O)[C@@H](O)[C@@H](O[C@H]1[C@H](O)[C@H]2O)O[C@@H]8CO)O[C@@H]7CO)O[C@@H]6CO)O[C@@H]5CO)O[C@@H]4CO)O[C@@H]3CO [57 μm, β-cyclodextrin]
